Test results published in ChEMBL document CHEMBL1138016, “Azaadamantane benzamide 5-HT4 agonists: gastrointestinal prokinetic SC-54750” (Bioorg Med Chem Lett, 2004).
pEC50, pIC50, pKi: −log10 of the molar value.

Columns and labels:
[1] = target: T1, Adrenergic receptor alpha-2 (Homo sapiens, UniProt P08913+P18825+P18089); assay: Concentration required for inhibition of alpha-2 adrenergic receptor; format: protein assay
T1 sequence (P08913 whole entry): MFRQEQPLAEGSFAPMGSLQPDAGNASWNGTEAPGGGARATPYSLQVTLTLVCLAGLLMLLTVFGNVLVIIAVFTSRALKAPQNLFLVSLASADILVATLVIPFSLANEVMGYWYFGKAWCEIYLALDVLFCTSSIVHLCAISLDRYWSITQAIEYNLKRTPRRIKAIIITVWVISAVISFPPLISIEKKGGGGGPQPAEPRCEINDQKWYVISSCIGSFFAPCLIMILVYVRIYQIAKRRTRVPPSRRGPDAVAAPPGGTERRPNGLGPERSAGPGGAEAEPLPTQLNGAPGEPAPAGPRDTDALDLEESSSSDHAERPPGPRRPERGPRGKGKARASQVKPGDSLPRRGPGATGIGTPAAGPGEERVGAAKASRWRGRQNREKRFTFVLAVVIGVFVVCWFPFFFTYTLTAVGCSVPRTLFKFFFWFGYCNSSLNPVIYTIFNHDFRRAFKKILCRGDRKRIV
T1 sequence (P18825 whole entry): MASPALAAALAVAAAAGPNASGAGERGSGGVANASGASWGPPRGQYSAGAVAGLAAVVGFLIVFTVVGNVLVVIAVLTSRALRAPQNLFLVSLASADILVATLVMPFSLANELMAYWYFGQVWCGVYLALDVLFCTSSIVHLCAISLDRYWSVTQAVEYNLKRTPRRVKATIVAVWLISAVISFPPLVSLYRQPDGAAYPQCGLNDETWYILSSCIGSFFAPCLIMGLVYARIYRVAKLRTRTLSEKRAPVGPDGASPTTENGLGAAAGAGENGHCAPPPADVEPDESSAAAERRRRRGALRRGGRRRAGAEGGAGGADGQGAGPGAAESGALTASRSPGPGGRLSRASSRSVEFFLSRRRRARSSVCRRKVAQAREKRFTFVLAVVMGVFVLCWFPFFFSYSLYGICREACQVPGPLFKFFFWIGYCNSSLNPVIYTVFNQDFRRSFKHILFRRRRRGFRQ
T1 sequence (P18089 whole entry): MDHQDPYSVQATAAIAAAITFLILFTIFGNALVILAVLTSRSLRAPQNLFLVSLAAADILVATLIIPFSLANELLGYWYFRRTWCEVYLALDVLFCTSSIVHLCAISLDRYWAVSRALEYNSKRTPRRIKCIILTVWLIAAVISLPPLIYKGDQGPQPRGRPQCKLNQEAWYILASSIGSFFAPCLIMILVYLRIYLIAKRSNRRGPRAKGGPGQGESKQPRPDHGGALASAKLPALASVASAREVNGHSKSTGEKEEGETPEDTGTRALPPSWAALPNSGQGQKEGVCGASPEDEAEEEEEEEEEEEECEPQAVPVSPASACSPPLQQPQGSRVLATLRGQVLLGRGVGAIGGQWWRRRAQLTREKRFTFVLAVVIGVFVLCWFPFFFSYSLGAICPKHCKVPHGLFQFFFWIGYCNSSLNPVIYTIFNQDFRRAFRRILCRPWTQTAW

[2] = Concentration required for inhibition of 5-hydroxytryptamine 1 receptor using [3H]-5-HT as the radioligand
[3] = Concentration required for inhibition of Dopamine receptor D2 using [3H]spiperone as the radioligand
[4] = Concentration required for inhibition of Dopamine receptor D1 using [3H]SCH-23,390 as the radioligand
[5] = target: 5-hydroxytryptamine receptor 4 (Rattus norvegicus) (UniProt Q62758); assay: Effective concentration required towards 5-hydroxytryptamine 4 receptor in rat tunica muscularis mucosae
[6] = target: 5-hydroxytryptamine receptor 4 (Cavia porcellus); assay: Binding affinity for 5-hydroxytryptamine 4 receptor in guinea pig was determined by guinea pig striatum binding assay
Oryctolagus cuniculus [7] = assay: Effective dose required for restoring normal motility after i.v. administration; format: functional, Canis lupus familiaris; details: iv
Oryctolagus cuniculus [8] = assay: Effective concentration required for restoring normal motility after i.v. administration; format: functional, organism-based, Canis lupus familiaris
Canis familiaris = assay: Tested for inhibition of cisplatin-induced emesis in dog after i.g. administration; details: Canis lupus familiaris, po; read-out: ID50 (the source's name)

Chain of 5-hydroxytryptamine receptor 4 (Rattus norvegicus) (Q62758 whole entry, looked up): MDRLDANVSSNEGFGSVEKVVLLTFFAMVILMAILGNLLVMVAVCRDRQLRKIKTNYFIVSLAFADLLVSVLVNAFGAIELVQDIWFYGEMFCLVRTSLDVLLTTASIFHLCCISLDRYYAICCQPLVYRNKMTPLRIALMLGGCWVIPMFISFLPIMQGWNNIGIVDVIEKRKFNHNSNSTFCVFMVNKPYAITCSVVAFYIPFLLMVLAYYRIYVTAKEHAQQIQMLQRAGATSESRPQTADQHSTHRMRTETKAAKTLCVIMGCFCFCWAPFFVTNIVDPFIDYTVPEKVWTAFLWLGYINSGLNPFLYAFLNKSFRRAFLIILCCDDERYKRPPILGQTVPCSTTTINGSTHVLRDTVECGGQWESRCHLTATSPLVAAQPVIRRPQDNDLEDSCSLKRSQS

SMILES | IC50 [1] [µM] | pIC50 [2] | pIC50 [3] | pIC50 [4] | pEC50 [5] | pKi [6] | ED50 (Oryctolagus cuniculus [7]) [mg/kg] | EC50 (Oryctolagus cuniculus [8]) [mg/kg] | ED50 (Canis familiaris) [mg/kg]
COc1cc(N)c(Cl)cc1C(=O)NC1C2CC3CC1CN(C3)C2 (stereo in doubt; 9a) | 6.4 | < 5.00 | < 5.00 | < 5.00 | 6.27 | < 6.30 | – | – | –
COc1cc(N)c(Cl)cc1C(=O)NC1C2CC3CC1CN(C3)C2 (stereo in doubt; 9b) | > 10 | – | – | – | 6.58 | 7.24 | – | – | –
COc1cc(N)c(Cl)cc1C(=O)NCC1C2CC3CC1CN(C3)C2 (stereo in doubt; 9c) | > 10 | < 5.00 | < 5.00 | < 5.00 | – | – | 0.62 | 0.03 | 0.3
